Reference: patent US7166618B2, “Nitrosated and nitrosylated cyclooxygenase-2 inhibitors, compositions and methods of use” (NitroMed, Inc., priority 1999, dated 2007)

Assays:
[1] = target: T1, ovine COX-1 (Ovis aries, UniProt P05979); experiment: biochemical
T1 sequence (P05979 25-600): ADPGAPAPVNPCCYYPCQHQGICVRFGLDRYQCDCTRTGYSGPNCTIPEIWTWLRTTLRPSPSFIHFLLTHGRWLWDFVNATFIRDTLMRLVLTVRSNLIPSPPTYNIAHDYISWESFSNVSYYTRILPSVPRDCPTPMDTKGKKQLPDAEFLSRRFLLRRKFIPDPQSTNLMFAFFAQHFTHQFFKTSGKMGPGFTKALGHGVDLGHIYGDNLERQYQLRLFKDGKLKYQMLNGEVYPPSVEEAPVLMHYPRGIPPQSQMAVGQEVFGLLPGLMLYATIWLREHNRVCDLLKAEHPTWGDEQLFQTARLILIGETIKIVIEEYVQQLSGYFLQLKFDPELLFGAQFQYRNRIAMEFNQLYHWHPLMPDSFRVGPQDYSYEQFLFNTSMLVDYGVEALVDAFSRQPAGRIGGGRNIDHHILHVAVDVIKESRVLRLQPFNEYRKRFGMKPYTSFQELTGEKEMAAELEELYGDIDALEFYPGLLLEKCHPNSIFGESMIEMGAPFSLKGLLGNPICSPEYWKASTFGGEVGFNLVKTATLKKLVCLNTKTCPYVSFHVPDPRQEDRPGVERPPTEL
Experimental: (§1) The ovine COX-1 and COX-2 activities and the measurement of the prostaglandin products synthesized were performed using the COX Inhibitor Screening Assay (Cayman Chemical, Ann Arbor, Mich., which also contained the Prostaglandin Screening EIA Kit, used for prostaglandin quantification). The test compounds were dissolved at 50 times the highest final reaction concentration in DMSO or any other suitable solvent as stock solutions. These stock solutions were then diluted in the same solvent. Eight glass test tubes (13×100 mm) were placed in a 37° C. water bath. To each test tube was added 950 μL of reaction buffer (0.1 M Tris-HCl, pH 8.0, containing 5 mM EDTA, and 2 mM phenol), 10 μL of 100 µM heme solution, and 10 μL (5 units) of either ovine COX-1 or COX-2 and the resulting mixture was incubated with the enzyme for 2 minutes. Twenty μL of the solvent was added to one tube (100% initial activity or solvent control) and 20 μL of each dilution of the test compound was added to one tube each. Each tube was vortexed immediately after the addition. The enzyme was incubated with the inhibitor for 3.5 minutes at 37° C. The enzymatic reaction was then initiated by the addition of 10 μL of freshly prepared 10 mM arachidonic acid (neutralized with KOH), vortexed and then incubated for 2 minutes at 37° C. The reaction was terminated by the addition of 50 μL of 1 M HCl, vortexed and placed at room temperature. One hundred microliters of a saturated stannous chloride solution (50 mg/mL of 0.1 M HCl) was added and the reaction mixture was allowed to stand at room temperature for at least 5 minutes.
(§2) The prostaglandins (PG) produced in the reactions were assayed, after a 2,000-fold dilution, using the Prostaglandin Screening EIA Kit (Cayman Chemical, Ann Arbor, Mich.). The assay-contains an antibody with broad specificity for all the prostaglandin families (PGF, PGE, PGD, and thromboxane B-type) synthesized in the COX-1/COX 2 reactions. The synthesized prostaglandin competes with a PG-tagged acetylcholine esterase tracer for binding to the PG antibody. Binding of synthesized PG lowers the calorimetric development of the Ellman's Reagent (computed as % B/B0). The actual amount of synthesized PG was interpolated from a standard curve using known amounts of supplied prostaglandin E2 (PGE2) (PGE2 concentration vs. % B/B0). The data generated were the mean±standard deviation of triplicate wells in the EIA for a single reaction at a given inhibitor concentration.

[2] = system: carrageenan-induced rat paw edema; experiment: Carrageenan-induced rat paw edema test; assay type: in vivo; settings: rats dosed intragastrically, paw volume 3 hours after carrageenan
Experimental: The carrageenan-induced rat paw edema test was used to measure antiinflammatory activity. The paw edema test was performed according to the method of Winter et al, Proc. Soc. Exp. Biol. Med. 111: 544–547, 1962. Male Sprague-Dawley rats (200–250 g) were fasted for 24 hours with water ad libitum. The rats were dosed intragastrically with test compounds in a volume of 5 mL/kg. One hour after dosing the paw volume was measured. Then each rat received a subplantar injection of 50 μl of 1% suspension of carrageenan. Three hours later, the paw volume was measured and compared with the initial volume measured […]. The increase in paw volume is presented as the mean±SEM for 5 rats per group. Data were analyzed by performing an ANOVA test followed by a Student-Keuls post hoc test.

[3] = target: T2, ovine COX-2 (Ovis aries, UniProt P79208); experiment: biochemical; assay type: biochemical
T2 sequence (P79208 17-603): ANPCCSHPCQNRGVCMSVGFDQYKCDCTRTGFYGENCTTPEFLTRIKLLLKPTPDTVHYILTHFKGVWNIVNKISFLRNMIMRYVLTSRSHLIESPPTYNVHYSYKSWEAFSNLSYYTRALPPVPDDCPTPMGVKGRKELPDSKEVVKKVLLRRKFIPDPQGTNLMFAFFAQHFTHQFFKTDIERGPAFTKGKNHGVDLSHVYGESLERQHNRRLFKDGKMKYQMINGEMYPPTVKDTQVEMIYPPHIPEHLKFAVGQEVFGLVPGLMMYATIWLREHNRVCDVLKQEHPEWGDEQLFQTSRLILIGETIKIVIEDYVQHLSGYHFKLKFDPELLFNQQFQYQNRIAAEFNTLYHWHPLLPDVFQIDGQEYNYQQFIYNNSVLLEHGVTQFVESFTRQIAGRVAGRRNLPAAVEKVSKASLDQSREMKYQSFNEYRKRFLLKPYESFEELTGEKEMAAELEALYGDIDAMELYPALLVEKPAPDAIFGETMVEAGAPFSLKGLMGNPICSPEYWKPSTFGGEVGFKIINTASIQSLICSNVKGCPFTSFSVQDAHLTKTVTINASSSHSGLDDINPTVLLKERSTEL
Experimental: as §1, §2

NS(=O)(=O)c1ccc(-c2c(-c3ccccc3)noc2CO[N+](=O)[O-])cc1 [Example 2b, 4-(5-((Nitrooxy)methyl)-3-phenylisoxazol-4-yl)benzenesulfonamide]
inhibition at 100 µM ([1]; Ovine COX-1 (footnote a), at 100 μM): 0% | IC50 ([1]; ovine COX-1): > 300 µM | paw volume (antiinflammatory activity) [2]: reduced the paw volume | IC50 [3]: 1.2 µM
